# Measurements taken from US20080311589A1, “METHOD OF HIGH-THROUGHPUT SCREENING OF MOLECULES AND COMPOUNDS FOR THEIR EFFECTS ON BIOLOGICAL AND CHEMICAL PROCESSES” (priority 1999, published 2008).
# “Also recorded” adds a separate entry of the source. Read-outs that look alike come from different tables or passages of the source.
# Assays:
# [1] = UV spectral shift binding assay with 1a; conditions: UV 240-310 nm
# Protocol: (§1) UV SPECTRAL SHIFT BINDING ASSAY: A quartz cuvette with 1 mL deionized, distilled water was used as a blank on a Cary 1E UV-visible spectrophotomer. 1a or 2 was diluted to a final concentration of 15 μM or 20 μM, respectively, and the UV spectrum from 240 nm to 320 nm was measured. […] Upon addition of certain transition metals (Table 1), this peak shifted such that the new λmax was 273 nm and 310 nm, for 1a and 2, respectively. […] For the calculation of correlation coefficients, all values less than 7.5 μM were taken to be 7.5 μM, all values greater than 1000 μM were taken to be 1000 μm and all values less than 10 μM were taken to be 10 μM.
# [2] = test system: mink lung epithelial cells; assay: BrdU cytoblot assay for S-phase progression; format: cell-based
# Text: BRDU CYTOBLOT ASSAY: The BrdU cytoblot assay for S-phase progression was described previously by Stockwell et al. (Chem. Biol. 6:71, 1999; see also, U.S. Patent Application Ser. No. 60/094,305, incorporated herein by reference).
# Compounds that mimic TGFβ activity would be expected to be capable of inducing cell cycle arrest or apoptosis, and in particular to block DNA replication, in responding cells. We therefore used an S-phase progression cytoblot assay to test whether our compounds could inhibit 5-bromodeoxyuridine (BrdU) incorporation into mink epithelial cells. […] Both compounds were therefore classified as true TGFβ mimics.
# [3] = test system: transiently transfected TGFβ-responsive reporter; assay: transient transfection luciferase assay, p3TPLux; format: cell-based, mink
# Protocol: (§2) LUCIFERASE ASSAYS: Our transient transfection luciferase assay was described previously by us (Stockwell et al., Chem Biol 5:385, 1998). Briefly, 100,000 Mv1Lu mink lung epithelial cells were transiently transfected in 12-well dishes with 400 ng p3TPLux or pNFkB-Lux, with or without 50 ng pFC-MEKK, in 300 μL minimal essential medium with non-essential amino acids. The DEAE-dextran/chloroquine/DMSO methods was used for transfection (Stockwell et al., Chem Biol 6:71, 1999). After cell lysis in 120 μL lysis buffer, a Beckman LS 6500 liquid scintillation counter was used in single photon mode to quantitate luminescence. For detection of luciferase activity in 6F cells (including the primary screen), 20,000 6F cells were seeded in 50 μL of 10% mink medium in each well of a white 384-well plate (Nalge Nune International; Naperville, Ill.; cat#164610) using a Multidrop 384 liquid dispenser (Lab Systems; Helsinki, Finland). After 16 hours, medium was removed using a 24 channel wand (V&P Scientific, Inc.; San Diego, Calif.; cat#VP 186L), the cells were washed with 75 μL of 0.2% mink medium (containing 0.2% FBS), and reagents were added in 40 μL of 0.2% medium. For the primary screen, reagents were added by pin transfer using 384 polypropylene pin arrays (Matrix Technologies; Hudson, N.H.). After 24 hours, the cells were cooled on ice and washed twice with 75 μL Hanks Balanced Salt Solution (HBSS; GibcoBRL; cat#24020-117). Then 20 μL lysis buffer (25 mM glycylglycine (Sigma; cat#E-0396), 1% Triton X-100 (Sigma; cat#T-9284), 1 mM dithiothreitol (DTT; Sigma; cat#D-5545), 1 mM phenylmethylsulfonyl fluoride (PMSF; Sigma; cat#P-7626)) was added to each well with a Multidrop. After incubating the cells for five minutes on ice, 20 μL of ATP/luciferin solution was added (25 mM glycylglycine pH 7.8, 15 mM MgSO4, 4 mM EGTA, 6.25 mM K2HPO4 (Sigma; cat#P5504) pH 7.8, 5 mM DTT, 75 μM D-luciferin (Sigma, cat# L-9504, 2 mM ATP (Sigma; cat#A-7699)). Light output was immediately measured with an Analyst 384-well platereader (LJL), with 0.5 second counting time per well.
# [4] = test system: S. cerevisiae strain BY4741
# Protocol: TRANSCRIPTIONAL PROFILING: We performed transcriptional profiling on yeast cells according to known techniques. […] We therefore set thresholds of 0.5 fold and 2.0 fold for transcriptional repression and transcriptional activation, respectively, in our experimental comparisons of untreated cells and cells treated with test compounds.
# Briefly, S. cerevisiae strain BY4741 (haploid) was streaked on a YPD plate, grown for 3 days at 30° C., and used to inoculate a 50 mL overnight culture of YPD. This culture was diluted into pre-warmed YPD such that A600=0.04 and allowed to grow until A600=0.47. The culture was split into pre-warmed flasks, with 50 mL in each of three flasks and 150 mL in a fourth flask. […] The cultures were centrifuged at 2500 g at room temperature for five minutes and the pelle frozen in liquid nitrogen. Total RNA was purified from each culture by hot acidic phenol/chloroform extraction and ethanol precipitation. Poly-A RNA wad purified with a Qiagen Oligotex mRNA Midi Kit (Qiagen; Valencia, Calif.; cat#70042). Fluorescently-labeled probe was prepared from […] poly-A mRNA and applied to glass slides that had been printed with 6240 yeast ORFs (James Hardwick, Jeffrey Tong, and Stuart L. Schreiber, unpublished results). The microarray was scanned with an Array Works scanner and the results were analyzed with Gene Spring software.
# [5] = test system: p3TPLux TGFβ-responsive reporter in 6F mink lung cells; assay: luciferase assay, stably transfected p3TPLux; format: cell-based; conditions: for synergy with TGFβ: 400 pM TGFβ1; for reporter gene expression: stably transfected reporter
# Protocol: FIG. 19 graphs the dose-response of transcriptional activation of compounds 1a and 2 in the presence (*) or absence (•) of 400 pM TGFβ1. 20,000 6F mink lung cells ( ) were seeded in 384 well plates, allowed to attach for 16 hours in 10% mink medium, and were treated with the indicated concentrations of 1a or 2.
# We screened more than 16,000 chemical compounds to identify those that specifically activated expression of a reporter gene (luciferase) under the control of TGFβ-responsive elements in stably transfected mammalian cells (mink lung epithelial cells). […] Given the structural similarity of compounds 1a-c, we expected that all three were operating through a common mechanism. We therefore continued testing on only one, compound 1a, as representative of the group.
# BS-C-1 cells = assay: fluorescence microscopy and live imaging of BS-C-1 cells; format: cell-based, monkey; conditions: BS-C-1 cells; 1A at 40 μM for 4 hours
# Text: We investigated the phenotype of mammalian cells (BS-C-I) treated with the compounds of group III. […] Our examination of the distribution of microtubules, actin, and chromatin in fixed cells by fluorescence microscopy allowed us to divide the small molecules into three classes.
# We then asked whether the chromosomes surrounding the monoastral microtubule array maintain microtubule attachment.
# microtubules [6] = assay: competition with fluorescently labeled taxol; format: binding; conditions: oregon green labeled taxol, fluorescence polarization
# Text: (§3) Since taxol and discodermolide prevent cold depolymerization of microtubules (Hung et al., Chem. Biol. 3:287, 1996), we tested whether synstab A-treatment of cells would cause a similar effect. […] This mutually exclusive binding is consistent with the observed taxol-like effects of synstab A on cells and on purified microtubules.
# Three different assays were used to confirm microtubule-stabilizing effects in the in vitro tubulin polymerization assay by repeating the above experiment. In addition, three independent experiment assessments were carried out. 1) In vitro competition experiments with fluorescence-labeled taxol. […] 2) In vivo incubation of BSCI-cells (a monkey epithelial cell line) with 40 μM 1A for four hours. In brief, BSCI cells were seeded on glass coverslips and cultured overnight. […] 3) treatment of cells with 1A resulted index by the phosphonucleolin (TG-3) cytoblot as described above as measured visually.
# [7] = test system: control reporter responsive to NFκB; conditions: transiently transfected
# Protocol: as §2, with “After 16 hours, medium was removed using a 24 channel wand (V&P Scientific, Inc.; San Diego, Calif.; cat#VP 186L), the cells were washed with 75 μL of 0.2% mink medium (containing 0.2% FBS), and reagents were added in 40 μL of 0.2% medium. For the primary screen, reagents were added by pin transfer using 384 polypropylene pin arrays (Matrix Technologies; Hudson, N.H.). After 24 hours, the cells were cooled on ice and washed twice with 75 μL Hanks Balanced Salt Solution (HBSS; GibcoBRL; cat#24020-117). Then 20 μL lysis buffer (25 mM glycylglycine (Sigma; cat#E-0396), 1% Triton X-100 (Sigma; cat#T-9284), 1 mM dithiothreitol (DTT; Sigma; cat#D-5545), 1 mM phenylmethylsulfonyl fluoride (PMSF; Sigma; cat#P-7626)) was added to each well with a Multidrop.” left out
# [8] = UV spectral shift binding assay with 2; conditions: UV 240-310 nm
# Protocol: as §1
# [9] = test system: 6F mink lung epithelial cells; assay: anti-BrdU cytoblot for suppressors of rapamycin; format: cell-based
# Text: FIG. 9. […] A 4 mm scale bar is shown. […] A 4 mm scale bar is shown.
# phosphonucleolin = phosphonucleolin cytoblot, suppression of nocodazole-induced mitotic arrest; format: cell-based, human; conditions: A549 cells; pretreated 8 hour, then 250 nM nocodazole 12 hours
# Protocol: FIG. 10. The ability of anti-proliferative agents such as juglone to suppress the effects of nocodazole-induced mitotic arrest can be detected in a cytoblot. […] (b) A549 human lung carcinoma cells were seeded at a density of 4000 cells in 40 μL of DMEM+ in each well of a white, opaque 384-well plate and incubated overnight at 37° C. with 5% CO2. Cells were either untreated or pretreated with juglone at the indicated concentrations for 8 hour. Subsequently, nocodazole at a final concentration of 250 nM was added to all wells in a final volume of 50 μL and the cells incubated for a further 12 hours. A phosphonucleolin cytoblot was performed. […] A 4 mm scale bar is shown.
# The treatment of cells with any small molecule that arrests cells outside of mitosis will suppress the ability of nocodazole to arrest cells in mitosis. […] It was hypothesized that inhibition of Pin1, which is an essential, highly conserved PPIase required for proper mitotic division in Xenopus and yeast, would prevent entry into mitosis and consequently prevent accumulation of phosphonucleolin (FIG. 10a).
# TG-3 staining = assay: fluorescence-activated cell sorting and TG-3 immunoblotting; format: cell-based; conditions: concentrations that do not affect viability
# microtubules [10] = assay: cold depolymerization of microtubules in cells; format: cell-based; conditions: 4° C., 0.5 h, taxol 10 μM, 4 h, synstab A 25 μM
# Text: as §3
structure (smiles),measurement,setting,value
"CN(c1ccc2cccc(O)c2n1)c1ccc2cccc(O)c2n1 [Compound 1a, 2,2′-(methylimino)bis-8(quinolinol)]",binding of 1a to metals (shift in UV absorbance maximum),[1],"binds strongly to Zn^2+, Fe^2+, Cu^2+, Cu^+, and Al^3+, and less well to Mn^2+, Co^2+, and Ni^2+"
same,BrdU incorporation,[2],inhibited BrdU incorporation; also recorded: inhibition of BrdU incorporation
same,activation of transiently versus stably transfected TGFβ-responsive reporter,[3],less effective
same,[…] IN PRESENCE OF COMPOUND […] IN ABSENCE OF COMPOUND,"[4]; gene YAL045C (ARN1), Multi-drug resistance pump, repressed genes",0.49
same,[…] IN PRESENCE OF COMPOUND […] IN ABSENCE OF COMPOUND,"[4]; gene YBL005WA, TyA transposon, activated genes",2.2
same,[…] IN PRESENCE OF COMPOUND […] IN ABSENCE OF COMPOUND,"[4]; gene YHL040C (ARN1), multidrug resistance pump, activated genes",2.0
same,synergy with TGFβ,[5],synergistic with TGFβ
same,reporter gene expression,[5],dose-dependent increase in reporter gene expression
same,"microtubule, spindle and chromosome phenotype",BS-C-1 cells,showed bundling of interphasic microtubules and aberrant mitotic spindles with misaligned chromosomes
same,competition for binding of fluorescently labeled taxol,microtubules [6],compete off bound labeled taxol
same,activation of NFκB-responsive control reporter,[7],Neither compound activated
"O=C(NN=Cc1ccccc1O)c1ccc(O)cc1 [Compound 2, Benzoic acid, 4-hydroxy, [(2-hydroxyphenyl)methylene]hydrazide]",BrdU incorporation,[2],inhibited BrdU incorporation; also recorded: inhibition of BrdU incorporation
same,binding of 2 to metals (shift in UV absorbance maximum),[8],"binds well to Fe^3+, Cu^2+, Cu^+, and CO^2+, and also shows some binding to Ni^2+"
same,activation of transiently versus stably transfected TGFβ-responsive reporter,[3],less effective
same,effect on gene expression in yeast cells,[4],no detectable effect on gene expression in yeast cells
same,synergy with metals in reporter activation,[5],synergized strongly with both Cu^+ and Cu^2+ but not with other metals
same,synergy with TGFβ,[5],synergistic with TGFβ
same,activity in screen (TGFβ-responsive luciferase reporter),"[5]; primary screen of more than 16,000 compounds",showed activity in our screen
same,reporter gene expression,[5],dose-dependent increase in reporter gene expression
same,activation of NFκB-responsive control reporter,[7],Neither compound activated
C=CC[C@@H]1/C=C(\C)C[C@H](C)C[C@H](OC)[C@H]2O[C@@](O)(C(=O)C(=O)N3CCCC[C@H]3C(=O)O[C@H](/C(C)=C/[C@@H]3CC[C@@H](O)[C@H](OC)C3)[C@H](C)[C@@H](O)CC1=O)[C@H](C)C[C@@H]2OC [FK506],excess of FK506 that suppresses the antiproliferative effect of rapamycin,"[9]; rapamycin and FK506 together 16 hours, then with BrdU 16 hours",30-100 fold
O=C1C=CC(=O)c2c(O)cccc21 [juglone],concentrations that prevent accumulation of phosphonucleolin,phosphonucleolin,greater than 25 microM
CO[C@H]1C[C@@H]2CC[C@@H](C)[C@@](O)(O2)C(=O)C(=O)N2CCCC[C@H]2C(=O)O[C@H]([C@H](C)C[C@@H]2CC[C@@H](O)[C@H](OC)C2)CC(=O)[C@H](C)/C=C(\C)[C@@H](O)[C@@H](OC)C(=O)[C@H](C)C[C@H](C)/C=C/C=C/C=C/1C [rapamycin],concentration that prevents BrdU incorporation,[9]; 6F mink lung cells,20 nM
CC(=O)O[C@H]1C(=O)[C@@]2(C)[C@H]([C@H](OC(=O)c3ccccc3)[C@]3(O)C[C@H](OC(=O)[C@H](O)[C@@H](NC(=O)c4ccccc4)c4ccccc4)C(C)=C1C3(C)C)[C@]1(OC(C)=O)CO[C@@H]1C[C@@H]2O [taxol],TG-3 reactivity of total cell extracts,TG-3 staining,increased TG-3 reactivity
same,protection from cold depolymerization,microtubules [10],noticeably stabilized microtubules
same,"microtubule, spindle and chromosome phenotype",BS-C-1 cells,less pronounced than that induced by synstab A
